Patent US20240382409A1, “COMPOSITION FOR ANTI-AGING AND SKIN IMPROVEMENT, COMPRISING COMPLEX OF INDIAN GOOSE-BERRY EXTRACT AND BARLEY SPROUT EXTRACT (lB COMPLEX) AS ACTIVE INGREDIENT” (HLSCIENCE CO., LTD, priority 2021, published 2024)
Values after ≈ are worked out from the molar mass of the structure shown.

Assay: Anti-oxidation test: DPPH radical scavenging activity
Format: biochemical
Settings: positive control
Method: In order to investigate the anti-oxidant effect using Examples 1 to 7 and Comparative examples 1 to 2, the DPPH (2,2-diphenyl-1-picryl hydrazyl) radical scavenging activity was evaluated.
The Examples 1 to 7 and Comparative examples 1 to 2 were mixed with 55 μM DPPH solution 450 μl by concentration and then reacted at 4° C. for 30 minutes. After completing the reaction, each sample was placed in a 96-well plate and the absorbance of samples was measured at 520 nm using a micro-plate reader. Then, a sample untreated group was used as a control group, and the free radical scavenging activity (%) of the sample was calculated as Equation 1 below.
Then, as a positive control scavenging radicals, ascorbic acid was used, and the concentration of ascorbic acid when the free radical scavenging activity was 50% was shown as 1.63 μg/mL.
IC50 means the concentration of sample when the free radical scavenging activity of the treated sample is 50%. Table 5 above summarizes the free radical scavenging activity in 5 μg/mL of each sample. […] It could be confirmed that the DPPH radical scavenging activity of Example 5 was the most excellent among them.

## O=C1O[C@H]([C@@H](O)CO)C(O)=C1O [Ascorbic acid, ascorbic acid]
  IC50 (concentration when the free radical scavenging activity is 50%): 1.63 µg/mL (≈ 9.25 µM)
